{"source": "patent US20130136752A1", "about": "“Ophthalmic Formulations” (OXIGENE, INC., priority 2010, published 2013)", "origin": "cited, not measured here", "key": {"[1]": {"test_system": "vessels with anomalous structure"}, "[2]": {"test_system": "choroidal neovascularization (CNV)", "settings": "rho/VEGF mice, P7 to P21"}}, "data": [{"smiles": "COc1ccc(/C=C\\c2cc(OC)c(OC)c(OC)c2)cc1OP(=O)(O)O", "note": "[CA4P, combretastatin A4 phosphate]", "values": [{"measurement": "systemic dose levels disrupting aberrant vessels", "setting": "[1]; aberrant vessels induced by overexpression of VEGF or by exposure to elevated oxygen", "result": "3 to 4", "unit": "mg/kg"}, {"measurement": "systemic dose level required for normal immature vessels", "setting": "[1]; normal immature vessels induced by burn injury", "result": 75, "unit": "mg/kg"}, {"measurement": "neovascular lesions at P21", "setting": "[2]; 2.2 mg/kg daily IP", "result": "numerous neovascular lesions"}, {"measurement": "number of neovascular lesions and total area of neovascularization per retina versus vehicle", "setting": "[2]; 4.0 mg/kg daily IP", "result": "significant reduction"}]}]}
